Measured values from patent US20060122153A1, “Antineoplastic ether lipid compounds with modifications at the sn-2 carbon” (priority 2003, published 2006).

Columns and labels:
Test in all cases: NCI growth inhibition screen, renal panel
Type in all cases: cell-based, human
Design in all cases: key: = means equivalent activity; + means that it appears to be significantly better (i.e., by ˜2x); < means it appears to be less active than ET18OCH3 (˜2x); a combination like =/+ or </+ means that activity is dependent upon the isomer; a combination like =/+ or </+ means that activity is dependent upon the isomer
[1] = system: 786-0; details: 786-0, Renal; from GI50s
Experimental: (§1) Candidates deemed suitable for in vivo testing were then synthesized in large scale quantities and some of this material was sent to the NCI's Developmental Therapeutics Program for a battery of growth inhibitory studies against various human tumor cell lines (60 cell lines, 9 different panels). The remainder of the material was used to assess in vivo efficacy using murine tumor models. Additionally, studies were conducted on the lead candidates to discern mechanism of action with particular emphasis on these agents apoptotic ability as measured by caspase 3 activity. The details (materials and methods) for these various assays are described further in the following discussion.
(§2) Ten compounds were also sent to NCI's Drug Discovery Program for screening against numerous human tumor cell lines (9 panels total: renal ovarian, colon, CNS, non-small cell lung, leukemia, breast, melanoma, and prostate). The data are shown in FIGS. 2a-i which also include data regarding D- and L-ET-18-OCH3 (listed as L-EL and D-EL in the figures). Upon examining the data, one is struck by how 1R and 1a′S standout in comparison to the other compounds, especially for the renal, ovarian, colon, and CNS panels.

[2] = system: A498; details: from GI50s
Experimental: as §1, §2

[3] = system: ACHIN; details: from GI50s
Experimental: as §1, §2

[4] = system: CAK-1; details: CAK-1, Renal; from GI50s
Experimental: as §1, §2

[5] = system: SN12C; details: from GI50s
Experimental: as §1, §2

[6] = system: TK-10; details: TK-10, Renal; from GI50s
Experimental: as §1, §2

Row | Structure (SMILES) | Performance as compared to ET-18-O—CH3 [1] | Performance as compared to ET-18-O—CH3 [2] | Performance as compared to ET-18-O—CH3 [3] | Performance as compared to ET-18-O—CH3 [4] | Performance as compared to ET-18-O—CH3 [5] | Performance as compared to ET-18-O—CH3 [6]
1 | CCCCCCCCCCCCCCCCCCOC[C@@H](COP(=O)([O-])OCC[N+](C)(C)C)OS(C)(=O)=O [1a′S] | 0 | 0 | 0 | 0 | 0 | 0
2 | CCCCCCCCCCCCCCCCCCOCC(COP(=O)([O-])OCC[N+](C)(C)C)OS(C)(=O)=O (stereo not drawn) [Compound 1aR] | = | = | = | = | = | =
